Data as given in patent US12410160B2 (Gilead Sciences, Inc., priority 2021, dated 2025).

Experiments:
human KHK-C = human KHK-C (Homo sapiens (Human), UniProt P50053); assay: KHK Biochemical Assay (IC50), ADP-Glo, KHK-C; details: average of at least two separate assays
Method in brief: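 Luminescent ADP-Glo read-out of ADP made by His-tagged KHK (BL21 (DE3) expression, Ni-NTA). Enzyme and compound sat together 30 min before ATP/fructose addition, then reacted 4 h at RT in Hepes pH 7.4 buffer with KCl, MgCl2, Triton-X. Quench 1 h, detection 1 h.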

[1] = molecular target: KHK-C expressed in NRK-52E cells (Homo sapiens (Human), UniProt P50053); assay: KHK-C Cell-based Assay (EC50), NRK CTG, fructose-mediated ATP-depletion
Chain of KHK-C expressed in NRK-52E cells (P50053 whole entry): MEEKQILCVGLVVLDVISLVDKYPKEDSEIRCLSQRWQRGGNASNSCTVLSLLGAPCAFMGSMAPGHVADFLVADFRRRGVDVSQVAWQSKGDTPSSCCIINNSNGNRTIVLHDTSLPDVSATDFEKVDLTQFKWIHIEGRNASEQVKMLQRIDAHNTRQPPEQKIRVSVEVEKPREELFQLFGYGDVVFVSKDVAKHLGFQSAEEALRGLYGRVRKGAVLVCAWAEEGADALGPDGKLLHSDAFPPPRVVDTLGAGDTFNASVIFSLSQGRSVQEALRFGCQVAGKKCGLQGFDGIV

Chain of human KHK-C (P50053 whole entry): as above

| IC50 (human KHK-C; ADP-Glo) [nM] | EC50 [1] [nM] | IC50 (human KHK-C) [nM] | SMILES |
| --- | --- | --- | --- |
| 899 | 2810 |  | C[C@H]1[C@H](O)CN1c1nc(-c2ccc(C(N)=O)cc2)c2c(n1)C1CC2C1 [Example 176] |
| 34.8 | 386 |  | C[C@H]1COc2cc(-c3nc(N4C[C@@H](O)[C@@H]4C)nc4c3CCC4(F)F)ccc2C(=O)N1 [Example 179, (S)-8-(7,7-difluoro-2-((2S,3R)-3-hydroxy-2-methylazetidin-1-yl)-6,7-dihydro-5H-cyclopenta[d]pyrimidin-4-yl)-3-methyl-3,4-dihydrobenzo[f][1,4]oxazepin-5(2H)-one] |
| 27.4 | 177 |  | C[C@@H]1COc2cc(-c3nc(N4C[C@@H](O)[C@@H]4C)nc4c3CCC4(F)F)ccc2C(=O)N1 [Example 180, (R)-8-(7,7-difluoro-2-((2S,3R)-3-hydroxy-2-methylazetidin-1-yl)-6,7-dihydro-5H-cyclopenta[d]pyrimidin-4-yl)-3-methyl-3,4-dihydrobenzo[f][1,4]oxazepin-5(2H)-one] |
| 11 | 579 |  | CC(=O)Nc1cc(-c2nc(N3C[C@@H](O)[C@@H]3C)nc3c2CCC3(F)F)ccc1C(N)=O [Example 181, 2-acetamido-4-(7,7-difluoro-2-((2S,3R)-3-hydroxy-2-methylazetidin-1-yl)-6,7-dihydro-5H-cyclopenta[d]pyrimidin-4-yl)benzamide] |
| 21.3 | 89.1 |  | C[C@H]1[C@H](O)CN1c1nc(-c2ccc(C(N)=O)c(OC(F)(F)F)c2)c2c(n1)C(F)(F)CC2 [Example 183, 4-(7,7-difluoro-2-((2S,3R)-3-hydroxy-2-methylazetidin-1-yl)-6,7-dihydro-5H-cyclopenta[d]pyrimidin-4-yl)-2-(trifluoromethoxy)benzamide] |
| 58.6 | 431 |  | C[C@H]1[C@H](O)CN1c1nc2c(c(-c3ccc(CNS(C)(=O)=O)cc3)n1)CCC2 [Example 195, N-[[4-[2-[(2S,3R)-3-hydroxy-2-methyl-azetidin-1-yl]-6,7-dihydro-5H-cyclopenta[d]pyrimidin-4-yl]phenyl]methyl]methanesulfonamide] |
|  | 403 | 219 | C[C@H]1CCN1c1nc2c(c(-c3ccncn3)n1)CCC2 [Example 393, 2-[(2S)-2-methylazetidin-1-yl]-4-pyrimidin-4-yl-6,7-dihydro-5H-cyclopenta[d]pyrimidine] |
|  | 785 | 172 | C[C@H]1CCN1c1nc2c(c(-c3nccn3C)n1)CCC2 [Example 394, 2-[(2S)-2-methylazetidin-1-yl]-4-(1-methylimidazol-2-yl)-6,7-dihydro-5H-cyclopenta[d]pyrimidine] |
|  | > 5000 | 329 | C[C@H]1CCN1c1nc2c(c(-c3nc4ccc(C(=O)O)cc4n3C)n1)CCC2 [Example 395, 3-methyl-2-[2-[(2S)-2-methylazetidin-1-yl]-6,7-dihydro-5H-cyclopenta[d]pyrimidin-4-yl]benzimidazole-5-carboxylic acid] |
|  | 166 | 32.8 | C[C@H]1CCN1c1nc2c(c(-c3cccc(C4(O)CS(=O)(=O)C4)c3)n1)CCC2 [Example 397, (S)-3-hydroxy-3-(3-(2-(2-methylazetidin-1-yl)-6,7-dihydro-5H-cyclopenta[d]pyrimidin-4-yl)phenyl)thietane 1,1-dioxide] |
|  | 138 | 74.3 | C[C@H]1CCN1c1nc2c(c(-c3cccc(S(C)(=O)=O)c3)n1)CCC2 [Example 399, (S)-2-(2-methylazetidin-1-yl)-4-(3-(methylsulfonyl)phenyl)-6,7-dihydro-5H-cyclopenta[d]pyrimidine] |
|  | 1590 | 3760 | NC(=O)c1ccc(-c2nc(N3CCCC34CC4)nc3c2CCC3)cc1 [Example 402, 4-(2-(4-azaspiro[2.4]heptan-4-yl)-6,7-dihydro-5H-cyclopenta[d]pyrimidin-4-yl)benzamide] |
|  | 242 | 218 | C[C@H]1CCCN1c1nc2c(c(-c3ccc(C(N)=O)cc3)n1)CCC2 [Example 403, (S)-4-(2-(2-methylpyrrolidin-1-yl)-6,7-dihydro-5H-cyclopenta[d]pyrimidin-4-yl)benzamide] |
|  | > 5000 | > 5000 | C[C@@H]1CCCN1c1nc2c(c(-c3ccc(C(N)=O)cc3)n1)CCC2 [Example 404, (R)-4-(2-(2-methylpyrrolidin-1-yl)-6,7-dihydro-5H-cyclopenta[d]pyrimidin-4-yl)benzamide] |
|  | 4770 | 2470 | NC(=O)c1ccc(-c2nc(N3CCC3)nc3c2CCC3)cc1 [Example 405, 4-(2-(azetidin-1-yl)-6,7-dihydro-5H-cyclopenta[d]pyrimidin-4-yl)benzamide] |
|  | > 5000 | > 5000 | CSCC1CCN1c1nc2c(c(-c3ccc(C(N)=O)cc3)n1)CCC2 (stereo not shown) [Example 415, 4-(2-(2-((methylthio)methyl)azetidin-1-yl)-6,7-dihydro-5H-cyclopenta[d]pyrimidin-4-yl)benzamide] |

| IC50 (human KHK-C; ADP-Glo) [nM] | EC50 [1] [nM] | IC50 (human KHK-C) [nM] | SMILES |
| --- | --- | --- | --- |
|  | > 5000 | > 5000 | NC(=O)c1ccc(-c2nc(N3CCCC3=O)nc3c2CCC3)cc1 [Example 418, 4-(2-(2-oxopyrrolidin-1-yl)-6,7-dihydro-5H-cyclopenta[d]pyrimidin-4-yl)benzamide] |
|  | 382 | 61.8 | C[C@H]1CCN1c1nc2c(c(-c3cccc(C4=CS(=O)(=O)C4)c3)n1)CCC2 [Example 420, (S)-3-(3-(2-(2-methylazetidin-1-yl)-6,7-dihydro-5H-cyclopenta[d]pyrimidin-4-yl)phenyl)-2H-thiete 1,1-dioxide] |
|  | 297 | 67 | C[C@H]1CCN1c1nc2c(c(-c3cccc(C4CS(=O)(=O)C4)c3)n1)CCC2 [Example 421, (S)-3-(3-(2-(2-methylazetidin-1-yl)-6,7-dihydro-5H-cyclopenta[d]pyrimidin-4-yl)phenyl)thietane 1,1-dioxide] |
|  | 240 | 95 | C[C@H]1CCN1c1nc2c(c(-c3ccc4c(c3)CS(=O)(=O)C4)n1)CCC2 [Example 422, (S)-5-(2-(2-methylazetidin-1-yl)-6,7-dihydro-5H-cyclopenta[d]pyrimidin-4-yl)-1,3-dihydrobenzo[c]thiophene 2,2-dioxide] |
|  | 78.4 | 5.4 | C[C@H]1CCN1c1nc2c(c(-c3cccc([C@@H]4[C@@H](C(=O)O)C4(C)C)c3)n1)CCC2 [Example 435, (1R,3R)-2,2-dimethyl-3-(3-(2-((S)-2-methylazetidin-1-yl)-6,7-dihydro-5H-cyclopenta[d]pyrimidin-4-yl)phenyl)cyclopropane-1-carboxylic acid] |
|  | 2940 | 2730 | CC(C)(O)[C@H]1CCN1c1nc2c(c(-c3ccc(C(N)=O)cc3)n1)CCC2 [Example 436, 4-[2-[(2R)-2-(1-hydroxy-1-methyl-ethyl)azetidin-1-yl]-6,7-dihydro-5H-cyclopenta[d]pyrimidin-4-yl]benzamide] |
|  | > 5000 | > 5000 | CC(C)C[C@H]1C(F)CN1c1nc2c(c(-c3ccc(C(N)=O)cc3)n1)CCC2 (stereo partly drawn) [Example 437, 4-[2-[(2S)-3-fluoro-2-isobutyl-azetidin-1-yl]-6,7-dihydro-5H-cyclopenta[d]pyrimidin-4-yl]benzamide] |
|  | > 5000 | > 5000 | C[C@@H](OCc1ccccc1)[C@H]1C(O)CN1c1nc2c(c(-c3ccc(C(N)=O)cc3)n1)CCC2 (stereo partly drawn) [Example 438, 4-[2-[(2R)-2-[(1R)-1-benzyloxyethyl]-3-hydroxy-azetidin-1-yl]-6,7-dihydro-5H-cyclopenta[d]pyrimidin-4-yl]benzamide] |
|  | 2730 | 1580 | NC(=O)c1ccc(-c2nc(N3CC[C@@H]3C(=O)O)nc3c2CCC3)cc1 [Example 442, (2R)-1-[4-(4-carbamoylphenyl)-6,7-dihydro-5H-cyclopenta[d]pyrimidin-2-yl]azetidine-2-carboxylic acid] |
|  | 53.8 | 4.2 | C[C@H]1CCN1c1nc2c(c(-c3cc(Cl)cc([C@H]4C[C@@H]4C(=O)O)c3)n1)CCC2 [Example 443, (1S,2S)-2-[3-chloro-5-[2-[(2S)-2-methylazetidin-1-yl]-6,7-dihydro-5H-cyclopenta[d]pyrimidin-4-yl]phenyl]cyclopropanecarboxylic acid] |
|  | > 5000 | > 5000 | C[C@H]1[C@H](O)CN1c1nc2c(c(-c3ccc(C(N)=O)cc3)n1)CC(F)(F)CC2 [Example 444, 4-(6,6-difluoro-2-((2S,3R)-3-hydroxy-2-methylazetidin-1-yl)-5,6,7,8-tetrahydroquinazolin-4-yl)benzamide] |
|  | > 5000 | 954 | CS(=O)(=O)NC[C@H]1CCN1c1nc2c(c(-c3ccc(C(N)=O)cc3)n1)CCC2 [Example 457, 4-[2-[(2R)-2-(methanesulfonamidomethyl)azetidin-1-yl]-6,7-dihydro-5H-cyclopenta[d]pyrimidin-4-yl]benzamide] |
|  | 238 | 48.6 | C[C@H]1[C@H](O)CN1c1nc(-c2ccc3c(c2)OCCNS3(=O)=O)c2c(n1)C(F)(F)CC2 [Example 500] |
|  | 597 | 212 | CC1CCC1c1nc2c(c(-c3ccc(C(N)=O)cc3)n1)CCC2 (stereo not shown) [Example 501, 4-(2-(2-methylcyclobutyl)-6,7-dihydro-5H-cyclopenta[d]pyrimidin-4-yl)benzamide] |
|  | 2000 | 768 | CC1(c2nc3c(c(-c4ccc(C(N)=O)cc4)n2)CCC3)CCC1 [Example 502, 4-(2-(1-methylcyclobutyl)-6,7-dihydro-5H-cyclopenta[d]pyrimidin-4-yl)benzamide] |

| SMILES | IC50 (human KHK-C; ADP-Glo) [nM] | EC50 [1] [nM] | IC50 (human KHK-C) [nM] |
| --- | --- | --- | --- |
| CC12CCC(CC1)N2c1nc2c(c(-c3ccc(C(N)=O)cc3)n1)CCC2 [Example 398, 4-(2-(-1-methyl-7-azabicyclo[2.2.1]heptan-7-yl)-6,7-dihydro-5H-cyclopenta[d]pyrimidin-4-yl)benzamide] |  | > 5000 | > 5000 |
